Assay results as given in US12157717B2, “Compounds for the treatment of bovine or swine respiratory disease” (Intervet Inc., priority 2018, dated 2024).
In brackets after ≈: the same amount, converted by molar mass.

What was measured:
Type in all cases: cell-based
[1] = test system: Mannheimia haemolytica MH 13093 (XB0472-6014.1); assay: MIC, broth-microdilution (CLSI), strain MH 13093; settings: Mannheimia haemolytica XB0472-6014.1, BRD field isolate
Protocol: (§1) The Minimum inhibitory concentrations (MIC) of compounds according to the invention for a number of veterinary bacterial pathogens were determined by the broth-microdilution method according to CLSI document VETO 1-A4.
(§2) Microdilution trays containing a doubling dilution series of the test compound were used for the tests. The MIC results were interpreted according to the CLSI documents VET01-S3. The lowest concentration of compound at which no visible growth (i.e. no turbidity) detected by the unaided eye was recorded as the MIC.

[2] = test system: Pasteurella multocida PM 6391 (ATCC 43137); assay: MIC, broth-microdilution (CLSI), strain PM 6391; settings: Pasteurella multocida ATCC 43137, reference strain
Protocol: as §1, §2

[3] = test system: Pasteurella multocida PM 6267 (P 2225 (L386)); assay: MIC, broth-microdilution (CLSI), strain PM 6267; settings: Pasteurella multocida P 2225 (L386), reference strain (mouse infection strain)
Protocol: as §1, §2

[4] = test system: Mannheimia haemolytica MH 13065 (XB0446-6003.9); assay: MIC, broth-microdilution (CLSI), strain MH 13065; settings: Mannheimia haemolytica XB0446-6003.9, BRD field isolate
Protocol: as §1, §2

[5] = test system: Pasteurella multocida PM 12080 (IV102277-0093); assay: MIC, broth-microdilution (CLSI), strain PM 12080; settings: Pasteurella multocida IV102277-0093, BRD field isolate
Protocol: as §1, §2

[6] = test system: Mannheimia haemolytica MH 6357 (M7/2); assay: MIC, broth-microdilution (CLSI), strain MH 6357; settings: Mannheimia haemolytica M7/2, reference strain (cattle infection strain)
Protocol: as §1, §2

[7] = test system: Pasteurella multocida PM 10775 (080130003051); assay: MIC, broth-microdilution (CLSI), strain PM 10775; settings: Pasteurella multocida 080130003051, BRD field isolate
Protocol: as §1, §2

[8] = test system: Mannheimia haemolytica MH 6374 (ATCC 33396); assay: MIC, broth-microdilution (CLSI), strain MH 6374; settings: Mannheimia haemolytica ATCC 33396, reference strain
Protocol: as §1, §2

[9] = test system: Mannheimia haemolytica MH 12587 (1071), macrolide-resistance: erm+, E+; assay: MIC, broth-microdilution (CLSI), strain MH 12587; settings: Mannheimia haemolytica 1071, BRD field isolate
Protocol: as §1, §2

[10] = test system: Mannheimia haemolytica MH 10720 (154); assay: MIC, broth-microdilution (CLSI), strain MH 10720; settings: Mannheimia haemolytica 154, BRD field isolate
Protocol: as §1, §2

SMILES	MIC MH 13093 [1] [µM]	MIC PM 6391 [2] [µM]	MIC PM 6267 [3] [µM]	MIC MH 13065 [4] [µM]	MIC PM 12080 [5] [µM]	MIC MH 6357 [6] [µM]	MIC PM 10775 [7] [µM]	MIC MH 6374 [8] [µM]	MIC MH 12587 [9] [µM]	MIC MH 10720 [10] [µM]
C=CCNCc1ccc(C#Cc2ccc(C(=O)NC(C(=O)NC)C(=O)NO)cc2)cc1 (stereo not shown) [Compound 2]	1.6 (≈ 0.673 µg/mL)	0.4 (≈ 0.168 µg/mL)	0.2 (≈ 0.0841 µg/mL)	0.8 (≈ 0.336 µg/mL)	≤0.1	0.8 (≈ 0.336 µg/mL)	≤0.1	1.6 (≈ 0.673 µg/mL)	0.8 (≈ 0.336 µg/mL)	0.4 (≈ 0.168 µg/mL)
CNC(=O)C(NC(=O)c1ccc(C#Cc2ccc(CNC3CC3)cc2)cc1)C(=O)NO (stereo not shown) [Compound 1]	1.6 (≈ 0.673 µg/mL)	≤0.1	≤0.1	0.4 (≈ 0.168 µg/mL)	≤0.1	0.4 (≈ 0.168 µg/mL)	≤0.1	0.4 (≈ 0.168 µg/mL)	0.8 (≈ 0.336 µg/mL)	≤0.1
CNC(=O)C(NC(=O)c1ccc(C#Cc2ccc(CN3CCOCC3)cc2)cc1)C(=O)NO (stereo not shown) [Compound 4]	1.6 (≈ 0.721 µg/mL)	≤0.1	≤0.1	1.6 (≈ 0.721 µg/mL)	≤0.1	1.6 (≈ 0.721 µg/mL)	≤0.1	3.1 (≈ 1.4 µg/mL)	6.3 (≈ 2.84 µg/mL)	0.4 (≈ 0.18 µg/mL)
CNC(=O)C(C(=O)NO)N(C)C(=O)c1ccc(C#Cc2ccc(CN3CCCC3)cc2)cc1 (stereo not shown) [Compound 25]	12.5 (≈ 5.61 µg/mL)	3.1 (≈ 1.39 µg/mL)	1.6 (≈ 0.718 µg/mL)	6.3 (≈ 2.83 µg/mL)	1.6 (≈ 0.718 µg/mL)	6.3 (≈ 2.83 µg/mL)	0.4 (≈ 0.179 µg/mL)	6.3 (≈ 2.83 µg/mL)	12.5 (≈ 5.61 µg/mL)	3.1 (≈ 1.39 µg/mL)
CNC(=O)C(NC(=O)c1ccc(C#Cc2ccc(CNCc3ccc(OC)cc3)cc2)cc1)C(=O)NO (stereo not shown) [Compound 6]	1.6 (≈ 0.801 µg/mL)	0.2 (≈ 0.1 µg/mL)	≤0.1	0.8 (≈ 0.4 µg/mL)	≤0.1	0.4 (≈ 0.2 µg/mL)	≤0.1	0.8 (≈ 0.4 µg/mL)	1.6 (≈ 0.801 µg/mL)	≤0.1
CNC(=O)C(C(=O)NO)N(C)C(=O)c1ccc(C#Cc2ccc(CNC3CCCC3)cc2)cc1 (stereo not shown) [Compound 26]	25 (≈ 11.6 µg/mL)	1.6 (≈ 0.74 µg/mL)	0.8 (≈ 0.37 µg/mL)	12.5 (≈ 5.78 µg/mL)	1.6 (≈ 0.74 µg/mL)	6.3 (≈ 2.91 µg/mL)	0.4 (≈ 0.185 µg/mL)	12.5 (≈ 5.78 µg/mL)	25 (≈ 11.6 µg/mL)	3.1 (≈ 1.43 µg/mL)
C#CCNCc1ccc(C#Cc2ccc(C(=O)NC(C(=O)NC)C(=O)NO)cc2)cc1 (stereo not shown) [Compound 20]	0.4 (≈ 0.167 µg/mL)	≤0.1	≤0.1	0.2 (≈ 0.0837 µg/mL)	≤0.1	0.2 (≈ 0.0837 µg/mL)	≤0.1	0.2 (≈ 0.0837 µg/mL)	0.8 (≈ 0.335 µg/mL)	≤0.1
CNC(=O)C(NC(=O)c1ccc(C#Cc2ccc(CNCc3cccnc3)cc2)cc1)C(=O)NO (stereo not shown) [Compound 11]	1.6 (≈ 0.754 µg/mL)	0.2 (≈ 0.0943 µg/mL)	≤0.1	0.8 (≈ 0.377 µg/mL)	≤0.1	0.4 (≈ 0.189 µg/mL)	≤0.1	0.8 (≈ 0.377 µg/mL)	0.8 (≈ 0.377 µg/mL)	0.2 (≈ 0.0943 µg/mL)
CNC(=O)C(NC(=O)c1ccc(C#Cc2ccc(CNCc3ccc(C)cc3)cc2)cc1)C(=O)NO (stereo not shown) [Compound 16]	1.6 (≈ 0.775 µg/mL)	0.4 (≈ 0.194 µg/mL)	≤0.1	0.8 (≈ 0.388 µg/mL)	0.2 (≈ 0.0969 µg/mL)	0.4 (≈ 0.194 µg/mL)	≤0.1	0.8 (≈ 0.388 µg/mL)	1.6 (≈ 0.775 µg/mL)	0.2 (≈ 0.0969 µg/mL)
CNC(=O)C(C(=O)NO)N(C)C(=O)c1ccc(C#Cc2ccc(CNCc3nccs3)cc2)cc1 (stereo not shown) [Compound 29]	12.5 (≈ 6.14 µg/mL)	3.1 (≈ 1.52 µg/mL)	0.8 (≈ 0.393 µg/mL)	6.3 (≈ 3.1 µg/mL)	1.6 (≈ 0.787 µg/mL)	6.3 (≈ 3.1 µg/mL)	0.2 (≈ 0.0983 µg/mL)	3.1 (≈ 1.52 µg/mL)	12.5 (≈ 6.14 µg/mL)	1.6 (≈ 0.787 µg/mL)
